For experiment [1], the target named is T1, rat MCH-1R (Rattus norvegicus, UniProt P97639). The experiment in a line: Aequorin bioluminescence functional assay, MCH-1R agonist activity. The following applies: for MCH-1R Agonist Activation %: 293-AEQ17 cells expressing rat MCH-1R.
The next experiment concerns the target human MCH-2R (Homo sapiens, UniProt Q969V1). Kind of experiment: Aequorin bioluminescence functional assay, MCH-2R agonist activity. The following applies: for MCH-2R Agonist Activation %: 293-AEQ17 cells expressing human MCH-2R.
Another experiment concerns the target human MCH-1R (Homo sapiens, UniProt Q99705). The experiment in a line: MCH-1R binding assay, inhibition of [125I]-human MCH binding to membranes.
Experiment [2] addresses T1, rat MCH-1R. Kind of experiment: Antagonist assay, 293-AEQ17 cells expressing rat MCH-1R. The experiment is classed as cell-based. Further details: expressed in transfected cells; host or cells: 293-AEQ17 (aequorin-expressing HEK-293 reporter line). The note with it: for Kb: determined per Trends in Pharmacol. Sci. 14:237-239, 1993. The procedure:
Cells were grown in DMEM (high glucose) supplemented with 10% FBS (Hyclone), 500 μg/ml G418, 200 μg/ml hygromycin and 25 mM HEPES in T75 flasks.
The assay itself involved charging apoaequorin with coelenterazine cp(Molecular Probes, C-14260) and was performed as follows:
1. Confluent T75 flasks are rinsed 1× with 12 ml Hams F12 medium+300 μM glutathione+0.1% FBS.
2. The cells were charged by adding 8 ml Hams F12+0.1% FBS+300 μM glutathione+10 μM coelenterazine, incubate at 37° C. for 1 hour.
4. ECB (6 ml) is added to the flask and the cells are dissociated with a rubber-tipped scraper, centrifuged for 5 minutes at 2500 rpm and the cell pellet resuspended in 5 ml ECB. The cells are counted and diluted to 5×10^5/ml.
Binding and agonist activity at the MCH-1R and MCH-2R was determined as described in Examples 2 and 3. Antagonist IC50 was determined as described in Example 4. Kb was determined using the procedures described in Trends in Pharmacol. Sci. 14:237-239, 1993.

Where a SMILES comes first, the peptide text is derived from it. Bridges are numbered along the chain shown (N, C = ends). [ ]: non-standard residue; d: D form. The star is where a group is joined. Pentanoyl(5-guanidino) = NC(N)=NCCCCC(=O)*; dNle = CCCC[C@@H](N)C(=O)O; Nle = CCCC[C@H](N)C(=O)O; Abu = CC[C@H](N)C(=O)O; Ava = NCCCCC(=O)O

human MCH-1R, sequence (Q99705 whole entry): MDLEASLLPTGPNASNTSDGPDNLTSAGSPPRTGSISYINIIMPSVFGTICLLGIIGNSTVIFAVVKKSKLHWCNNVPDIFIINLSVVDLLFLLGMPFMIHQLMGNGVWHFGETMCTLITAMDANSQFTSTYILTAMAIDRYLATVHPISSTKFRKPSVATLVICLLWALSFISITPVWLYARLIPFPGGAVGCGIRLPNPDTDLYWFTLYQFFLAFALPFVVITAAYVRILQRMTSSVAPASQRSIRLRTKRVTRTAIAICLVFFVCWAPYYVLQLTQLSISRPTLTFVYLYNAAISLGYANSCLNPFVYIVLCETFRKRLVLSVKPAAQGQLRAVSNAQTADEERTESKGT
human MCH-2R, sequence (Q969V1 whole entry): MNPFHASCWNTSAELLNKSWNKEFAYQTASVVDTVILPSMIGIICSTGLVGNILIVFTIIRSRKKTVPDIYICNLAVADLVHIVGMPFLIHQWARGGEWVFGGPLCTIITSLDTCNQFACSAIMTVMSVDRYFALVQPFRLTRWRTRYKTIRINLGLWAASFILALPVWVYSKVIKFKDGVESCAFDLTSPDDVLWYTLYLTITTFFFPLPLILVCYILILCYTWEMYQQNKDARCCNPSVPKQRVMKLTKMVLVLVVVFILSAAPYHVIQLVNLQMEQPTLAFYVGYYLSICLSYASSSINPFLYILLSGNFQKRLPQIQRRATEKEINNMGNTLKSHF
T1 sequence (P97639 whole entry): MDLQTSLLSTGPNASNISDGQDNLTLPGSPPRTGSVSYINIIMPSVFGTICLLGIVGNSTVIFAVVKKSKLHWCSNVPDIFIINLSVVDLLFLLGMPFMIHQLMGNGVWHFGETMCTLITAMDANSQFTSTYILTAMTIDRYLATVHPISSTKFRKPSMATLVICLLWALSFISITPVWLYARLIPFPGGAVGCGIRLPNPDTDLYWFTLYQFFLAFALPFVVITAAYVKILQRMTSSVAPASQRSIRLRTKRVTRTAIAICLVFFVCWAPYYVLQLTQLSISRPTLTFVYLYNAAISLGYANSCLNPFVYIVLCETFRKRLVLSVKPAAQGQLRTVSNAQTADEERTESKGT
Method for human MCH-1R: Cell membranes were prepared on ice. Each T-75 flask was rinsed twice with 10 ml of Enzyme-free Cell Dissociation Buffer (Specialty Media, Lavallette, N.J.), and the cell monolayer was detached in an additional 10 ml of Enzyme-free Cell Dissociation Buffer by incubation at room temperature for 10 minutes. Dissociated cells were centrifuged (500×g for 10 minutes at 4° C.), resuspended in 5 ml homogenization buffer (10 mM Tris-HCl, pH 7.4, 0.01 mM Pefabloc, 10 μM phosphoramidon, 40 μg/ml bacitracin) and then homogenized using a glass homogenizer (10-15 strokes). The homogenate was centrifuged for 10 minutes (1,000×g at 4° C.). The resulting supernatant was then centrifuged at 38,700×g for 15 minutes at 4° C. Pelleted membranes were resuspended (passed through 25 gauge needle 5 times), snap-frozen on liquid nitrogen, and stored at −80° C. until use.
Bound radioligand was separated by rapid vacuum filtration (Packard Filtermate 96-well cell harvester) through GF/C filters pretreated for 1 hour with 1% polyethylenimine. After application of the membrane suspension to the filter, the filters were washed 3 times with 3 ml each of ice-cold 50 mM Tris-HCl, pH 7.4, 10 mM MgCl2, 2 mM EDTA, 0.04% Tween 20 and the bound radioactivity on the filters was quantitated by scintillation counting (TopCount device).
For the SPA-based assay, WGA-PVT beads (NEN Life Sciences Products) were resuspended in Dulbecco's PBS with calcium and magnesium (500 mg beads in 4 ml PBS). […] The suspension was mixed gently for 20 minutes, 12.3 ml of assay buffer and protease inhibitors were added (final concentration given): 2 μg/ml leupeptin, 10 μM phosphoramidon, 40 μg/ml bacitracin, 5 μg/ml aprotinin, 0.1 mM Pefabloc.
Coated beads were kept on ice until use.

Take `CSCC[C@@H]1NC(=O)[C@@H](NC(=O)[C@@H](CCCNC(=N)N)NC(C)=O)CSSC[C@@H](C(N)=O)NC(=O)CCCCNC(=O)CCCCNC(=O)[C@H](Cc2ccc(O)cc2)NC(=O)[C@H](C(C)C)NC(=O)[C@H](CCCNC(=N)N)NC(=O)CCCCNC(=O)CCCCNC1=O` [SEQ. ID. NO. 33] (Ac-[dR]CM[Ava][Ava]RVY[Ava][Ava]C-NH2; disulfide 2-11 (inferred); C-terminus assumed): on rat MCH-1R [1], the EC50 was > 10000 nM and the “MCH-1R Agonist Activation %” value amounted to 2%. Further, at human MCH-2R, the EC50 is > 10000 nM and the “MCH-2R Agonist Activation %” value turned out to be 28%. On human MCH-1R, this compound came in with an IC50 of 135 nM. On rat MCH-1R [2], this compound displayed an IC50 of 13.8 nM and a Kb of 6 nM.
As to `CC(C)C[C@@H]1NC(=O)[C@H](C)NC(=O)[C@@H](NC(=O)CCCCNC(=N)N)CSSC[C@@H](C(N)=O)NC(=O)CCCCNC(=O)CCCCNC(=O)[C@H](Cc2ccc(O)cc2)NC(=O)[C@H](C(C)C)NC(=O)[C@H](CCCNC(=N)N)NC(=O)CNC1=O` [SEQ. ID. NO. 19] ({Pentanoyl(5-guanidino)}-CALGRVY[Ava][Ava]C-NH2; disulfide 1-10 (inferred); C-terminus assumed), at rat MCH-1R [1], the EC50 was > 10000 nM. Further, on human MCH-2R, the EC50 was > 10000 nM and the “MCH-2R Agonist Activation %” value turned out to be 45%. This compound also displayed an IC50 at human MCH-1R of 140 nM. At rat MCH-1R [2], this compound displayed an IC50 of 67 nM and a Kb of 29 nM.
For `CSCC[C@@H]1NC(=O)[C@@H](NC(=O)CCCCNC(=N)N)CSSC[C@@H](C(N)=O)NC(=O)CCCCNC(=O)CCCCNC(=O)[C@H](Cc2ccc(O)cc2)NC(=O)[C@H](C)NC(=O)[C@H](CCCNC(=N)N)NC(=O)CNC(=O)[C@H](CC(C)C)NC1=O` [SEQ. ID. NO. 20] ({Pentanoyl(5-guanidino)}-CMLGRAY[Ava][Ava]C-NH2; disulfide 1-10; C-terminus assumed), at rat MCH-1R [1], the EC50 was > 10000 nM and the “MCH-1R Agonist Activation %” value came out at 3.4%. At human MCH-2R, the half-maximal effective concentration (EC50) was > 10000 nM and the “MCH-2R Agonist Activation %” value was determined as 38%. At human MCH-1R, this compound displayed an IC50 of 29 nM. Also, at rat MCH-1R [2], the IC50 turned out to be 4.7 nM and the Kb was 2 nM.
Regarding `CCCC[C@H]1NC(=O)[C@H](CC(C)C)NC(=O)[C@H](CCSC)NC(=O)[C@@H](NC(=O)CCCCNC(=N)N)CSSC[C@@H](C(N)=O)NC(=O)CCCCNC(=O)CCCCNC(=O)[C@H](Cc2ccc(O)cc2)NC(=O)[C@H](C(C)C)NC(=O)[C@H](CCCNC(=N)N)NC1=O` [SEQ. ID. NO. 27] ({Pentanoyl(5-guanidino)}-CML[dNle]RVY[Ava][Ava]C-NH2; disulfide 1-10; C-terminus assumed), on rat MCH-1R [1], the EC50 was > 10000 nM and the “MCH-1R Agonist Activation %” value worked out at 3%. In addition, on human MCH-2R, the EC50 is > 10000 nM and the “MCH-2R Agonist Activation %” value is reported as 91%. On human MCH-1R, this compound showed an IC50 of 28 nM. On rat MCH-1R [2], the IC50 is 5.4 nM and the Kb was 2.4 nM.
Turning to `CSCC[C@@H]1NC(=O)[C@@H](NC(=O)[C@H](CCCNC(=N)N)NC(C)=O)CSSC[C@@H](C(N)=O)NC(=O)CCCCNC(=O)CCCCNC(=O)[C@H](Cc2ccc(O)cc2)NC(=O)[C@H](C(C)C)NC(=O)[C@H](CCCNC(=N)N)NC(=O)CCCCNC(=O)CCCCNC1=O` [SEQ. ID. NO. 30] (Ac-RCM[Ava][Ava]RVY[Ava][Ava]C-NH2; disulfide 2-11 (inferred); C-terminus assumed), on rat MCH-1R [1], the EC50 is > 10000 nM and the “MCH-1R Agonist Activation %” value came out at 3%. Further, on human MCH-2R, the EC50 is > 10000 nM and the “MCH-2R Agonist Activation %” value was 16%. Besides, at human MCH-1R, the IC50 worked out at 88 nM. Moreover, at rat MCH-1R [2], the IC50 turned out to be 10.6 nM and the Kb worked out at 4.6 nM.
As for `CSCC[C@@H]1NC(=O)[C@@H](NC(=O)CCCCNC(=N)N)CSSC[C@@H](C(=O)O)NC(=O)CCCCNC(=O)CCCCNC(=O)[C@H](Cc2ccc(O)cc2)NC(=O)[C@H](C(C)C)NC(=O)[C@H](CCCNC(=N)N)NC(=O)CNC(=O)[C@H](CC(C)C)NC1=O` [SEQ. ID. NO. 18], on rat MCH-1R [1], the EC50 is > 10000 nM and the “MCH-1R Agonist Activation %” value was 3.8%. Further, on human MCH-2R, the EC50 is > 10000 nM and the “MCH-2R Agonist Activation %” value is 38%. The IC50 at human MCH-1R was found to be 290 nM. At rat MCH-1R [2], this compound had an IC50 of 75.7 nM and a Kb of 32.9 nM.
For `CSCC[C@@H]1NC(=O)[C@@H](NC(=O)CCCCNC(=N)N)CSSC[C@@H](C(N)=O)NC(=O)CCNC(=O)CCNC(=O)[C@H](Cc2ccc(O)cc2)NC(=O)[C@H](C(C)C)NC(=O)[C@H](CCCNC(=N)N)NC(=O)CNC(=O)[C@H](CC(C)C)NC1=O` [SEQ. ID. NO. 14], on rat MCH-1R [1], the EC50 is > 10000 nM and the “MCH-1R Agonist Activation %” value is 3.6%. In addition, at human MCH-2R, the EC50 is > 10000 nM and the “MCH-2R Agonist Activation %” value was 32%. The IC50 on human MCH-1R amounted to 176 nM. Also, on rat MCH-1R [2], inhibition was half-maximal at 6.8 nM (IC50) and the Kb worked out at 3 nM.
`CSCC[C@@H]1NC(=O)[C@@H](NC(=O)CCCCNC(=N)N)CSSC[C@@H](C(N)=O)NC(=O)CCCCNC(=O)CCCCNC(=O)[C@H](Cc2ccc(O)cc2)NC(=O)[C@H](C(C)C)NC(=O)[C@H](CCCNC(=N)N)NC(=O)CCCCNC(=O)CCCCNC1=O` [SEQ. ID. NO. 32] ({Pentanoyl(5-guanidino)}-CM[Ava][Ava]RVY[Ava][Ava]C-NH2; disulfide 1-10; C-terminus assumed): at rat MCH-1R [1], the EC50 is > 10000 nM and the “MCH-1R Agonist Activation %” value is 3%. At human MCH-2R, the EC50 is > 10000 nM and the “MCH-2R Agonist Activation %” value was determined as 91%. At human MCH-1R, this compound returned an IC50 of 62 nM. On rat MCH-1R [2], this compound gave an IC50 of 56 nM and a Kb of 24 nM.
As to `CSCC[C@@H]1NC(=O)[C@@H](NC(=O)[C@@H](CCCNC(=N)N)NC(C)=O)CSSC[C@@H](C(N)=O)NC(=O)CCCCNC(=O)CCCCNC(=O)[C@H](Cc2ccc(O)cc2)NC(=O)[C@H](C(C)C)NC(=O)[C@H](CCCNC(=N)N)NC(=O)CNC(=O)[C@H](CC(C)C)NC1=O` [SEQ. ID. NO. 10] (Ac-[dR]CMLGRVY[Ava][Ava]C-NH2; disulfide 2-11 (inferred); C-terminus assumed), on rat MCH-1R [1], the EC50 was 1300 nM and the “MCH-1R Agonist Activation %” value turned out to be 28%. Also, on human MCH-2R, the EC50 is > 10000 nM and the “MCH-2R Agonist Activation %” value was determined as 18%. At human MCH-1R, this compound yielded an IC50 of 19.5 nM.
Regarding `CCCC[C@@H]1NC(=O)[C@@H](NC(=O)CCCCNC(=N)N)CSSC[C@@H](C(N)=O)NC(=O)CCCCNC(=O)CCCCNC(=O)[C@H](Cc2ccc(O)cc2)NC(=O)[C@H](C(C)C)NC(=O)[C@H](CCCNC(=N)N)NC(=O)CNC(=O)[C@H](CC(C)C)NC1=O` [SEQ. ID. NO. 16] ({Pentanoyl(5-guanidino)}-C[Nle]LGRVY[Ava][Ava]C-NH2; disulfide 1-10; C-terminus assumed), on rat MCH-1R [1], the EC50 is > 10000 nM and the “MCH-1R Agonist Activation %” value is recorded as 3%. On human MCH-2R, the EC50 was > 10000 nM and the “MCH-2R Agonist Activation %” value worked out at 59%. On human MCH-1R, this compound registered an IC50 of 11 nM. On rat MCH-1R [2], this compound displayed an IC50 of 13.8 nM and a Kb of 6 nM.
With `CC[C@@H]1NC(=O)[C@@H](NC(=O)CCCCNC(=N)N)CSSC[C@@H](C(N)=O)NC(=O)CCCCNC(=O)CCCCNC(=O)[C@H](Cc2ccc(O)cc2)NC(=O)[C@H](C(C)C)NC(=O)[C@H](CCCNC(=N)N)NC(=O)CNC(=O)[C@H](CC(C)C)NC1=O` [SEQ. ID. NO. 17] ({Pentanoyl(5-guanidino)}-C[Abu]LGRVY[Ava][Ava]C-NH2; disulfide 1-10; C-terminus assumed), on rat MCH-1R [1], the EC50 is > 10000 nM and the “MCH-1R Agonist Activation %” value stood at 3%. Further, at human MCH-2R, the EC50 was > 10000 nM and the “MCH-2R Agonist Activation %” value was 7%. This compound also returned an IC50 at human MCH-1R of 830 nM.

Usually EC50 stands for the concentration needed to bring the measured effect to its halfway point. A lower EC50 goes with a more potent agent. Usually IC50 stands for the concentration at which inhibition is half-maximal. Lower therefore signals greater potency. For orientation: Kb means the equilibrium dissociation constant of an antagonist, usually derived from a functional assay. A higher Kb goes with a less potent antagonist.

Values taken from patent US7335723B2, “Melanin-concentrating hormone antagonists” (priority 2001, dated 2008).
